In PMC12186298, “Phase 1 clinical trial of eneboparatide, a novel PTH receptor 1 agonist” (Endocrine Connections, 2025):
Peptide text beside a SMILES is read from it.

Key:
healthy subjects [1] = assay: Pharmacodynamics (serum calcium, phosphorus, endogenous PTH, urine), Part A SAD; type: in vivo, human
Description: Seven sequential cohorts were included in Part A. The first cohort was single-blind and included four subjects, of which three subjects were randomized to receive 5 μg eneboparatide and one subject was randomized to receive placebo. […] Subjects in Part A were admitted to the phase 1 study centre on day 1 and received the study drug at the clinical site on day 1 as a single, subcutaneous abdominal injection in the morning. They were discharged on day 4 and were asked to return for a follow-up (FU) visit on day 5–8.
(§1) Blood samples were taken on day 1 at pre-dose, at several time points post-dose up to day 4 and at FU (Part A), on day 1–14 (pre-dose), and day 15–17 and at FU (Part B) for the analysis of total sCa, albumin-adjusted serum calcium (ADsCa), and sPh. These parameters were also measured on day 1, 7 and 14 at several time points post-dose. Samples for serum creatinine were taken at predefined time points to allow for calculation of fractional excretion of calcium (FECa). Endogenous serum PTH(1–84) was measured on day 1 (pre-dose and 12 h post-dose), day 2–4 and at FU (Part A), on pre-dose on day 1, 7, and 14 and on day 15–17 and FU (Part B). In Part B, additional blood samples were taken on day 1, day 14 and at FU for the analysis of serum bone turnover biomarkers, including carboxy-terminal telopeptide of type I collagen (s-CTx), and procollagen type 1 amino-terminal propeptide (P1NP).
(§2) Urine collection was performed over 24 h for the analysis of calcium and creatinine on day 1–3 and at FU (Part A) and day 1, day 7, day 14 and at FU (Part B). FECa (%) was calculated by the formula: FECa = (urine calcium/serum calcium)/(urine creatinine/serum creatinine).

healthy subjects [2] = assay: Pharmacodynamics (serum calcium, phosphorus, endogenous PTH, urine, bone markers), Part B MAD; type: in vivo, human
Description: as §1, §2

## CC[C@H](C)[C@H](NC(=O)[C@H](CCC(=O)O)NC(=O)[C@H](C)NC(=O)[C@@H](NC(=O)[C@H](Cc1c[nH]cn1)NC(=O)[C@@H](NC(=O)[C@H](CCC(=O)O)NC(=O)[C@H](C)NC(=O)[C@@H](NC(=O)[C@H](CC(C)C)NC(=O)[C@H](CCCCN)NC(=O)[C@H](Cc1c[nH]cn1)NC(=O)[C@H](CC(C)C)NC(=O)[C@H](Cc1ccccc1)NC(=O)[C@H](C)NC(=O)[C@H](CCCNC(=N)N)NC(=O)[C@H](CCCNC(=N)N)NC(=O)[C@H](CCCNC(=N)N)NC(=O)[C@H](C)NC(=O)[C@H](CC(=O)O)NC(=O)[C@H](CCC(N)=O)NC(=O)[C@@H](NC(=O)[C@H](Cc1c[nH]c2ccccc12)NC(=O)[C@H](CCCCN)NC(=O)[C@H](C)NC(=O)[C@H](CCCNC(=N)N)NC(=O)[C@H](CCC(N)=O)NC(=O)[C@H](Cc1c[nH]cn1)NC(=O)[C@H](CCSC)NC(=O)[C@H](CC(C)C)NC(=O)[C@H](CCC(N)=O)NC(=O)[C@@H](NC(=O)[C@H](CCC(=O)O)NC(=O)[C@H](C)NC(=O)[C@@H](NC(=O)[C@H](C)N)C(C)C)[C@@H](C)CC)[C@@H](C)CC)[C@@H](C)CC)[C@@H](C)CC)[C@@H](C)O)C(=O)O [eneboparatide] (H-AVAEIQLMHQRAKWIQDARRRAFLHKLIAEIHTAEI-OH; N-terminus and C-terminus assumed)
Healthy subjects [1]; increasing single doses
  urinary excretion of calcium or phosphorus: no apparent dose-related changes
Healthy subjects [1]; single sc 20 μg, moderate but persistent elevation
  duration of elevation of ADsCa post-dose vs placebo: up to 18 h
Healthy subjects [1]; single sc 5 and 10 μg
  effect on physiological decline in ADsCa: blunted this physiological decline in ADsCa during the first 6 h post-dosing
Healthy subjects [1]; single sc 20–120 μg
  persistence of dose-dependent decrease of endogenous sPTH(1–84): 24 to 72 h
Healthy subjects [2]
  endogenous sPTH compared to placebo: rapidly and dose-dependently declined
Healthy subjects [2]; 80 μg dose
  time for ADsCa to return to near baseline after cessation of treatment: ~3 days
Healthy subjects [2]; 80 μg/d
  subjects with transient hypercalcaemia in whom urinary excretion of calcium remained normal: five of the six
Healthy subjects [2]; 14 days of treatment
  mean 24 h-uCa: not associated with an increase
Healthy subjects [2]; after 14 days of treatment, high-dose groups (above 40 μg/day)
  time mean sPh remained lower compared to placebo: 12 to 20 h
Healthy subjects [2]; all doses
  FECa: below 1.5%
Healthy subjects [2]; days 7 and 14, all doses
  repeated sCa measurements throughout 24 h post-dosing: stable values with little variation
Healthy subjects [2]; doses up to 60 μg
  time for ADsCa to return to near baseline after cessation of treatment: approximately 2 days
  time to stable ADsCa levels after the first administration: approximately 2 days
Healthy subjects [2]; increasing doses for 14 consecutive days
  serum levels of P1NP and CTX: did not alter
